Data: US20080275085A1, “Piperidine derivative and use thereof” (priority 2007, published 2008)
Counter-ions that a name gives are not always drawn.

Molecular target: T1, substance P receptor (Homo sapiens, UniProt P25103)
T1 construct: The receptor was prepared from human lymphoblast cells (IM-9); endogenous in cells; host or cells: IM-9 human lymphoblast cells (membrane fraction, 100,000xG precipitate)
Assay: Radioligand receptor binding inhibitory activity (125I-BHSP binding, receptor from IM-9 cells)
Conditions: receptor from human lymphoblast cells (IM-9); radioligand 125I-BHSP; 25° C., 30 min
Method: Radioligand Receptor Binding Inhibitory Activity (Binding Inhibitory Activity Using Receptor from Human Lymphoblast Cells (IM-9))
The method of M. A. Cascieri et al., “Molecular Pharmacology, vol. 42, p. 458 (1992)” was modified and used. The receptor was prepared from human lymphoblast cells (IM-9).
IM-9 cells (2×10^5 cells/mL) were inoculated and incubated for 3 days, which was then subjected to centrifugation for 10 min. at 500×G to give cell pellets. The obtained pellets were washed with PBS (GIBCO), disrupted in buffer A (50 mM tris.hydrochloric acid buffer (pH 7.4) containing 120 mM sodium chloride, 5 mM potassium chloride, 2 μg/mL chymostatin, 40 μg/mL bacitracin, 40 μg/mL APMSF, 1 mM ethylenediamine tetra acetic acid) using a polytron.homogenizer [manufactured by Kinematika, Germany], and centrifuged at 100,000×G for 40 min. The precipitated fraction was suspended in buffer B (50 mM Tris-HCl (pH 7.4), 0.02% bovine serum albumin, 2 μg/mL chymostatin, 40 μg/mL bacitracin, 40 μg/mL APMSF, 3 mM MgCl2), which was then cryopreserved (−80° C.) as a receptor specimen.
Buffer B (50 μL) was added to a 96 well microassay plate (CORNING). Thereto was added 50 μL of membrane preparation suspended in buffer B at 250 μg/mL. A measurement buffer (50 μL) containing 2% dimethyl sulfoxide was added to examine total binding; 4 μM unlabeled SP (50 μL) diluted with a measurement buffer containing 2% dimethyl sulfoxide was added to examine non-specific binding; and 50 μL of a test compound (containing 2% dimethyl sulfoxide) diluted with a measurement buffer was added to examine binding inhibitory activity of the test compound. In addition, […] ^125I-BHSP solution (50 μL) was added to each well.
After reaction at 25° C. for 30 min, the cells were rapidly filtered through a GF/C filter plate (PerkinElmer) using a cell harvester (manufactured by PerkinElmer) to quench the reaction, and washed 10 times with 250 μL of 50 mM tris-HCl buffer (pH 7.4) containing 0.02% bovine serum albumin. The GF/C filter plate was dried, MicroScinti 0 (20 μL) was added, and the radioactivity was measured with TopCount (manufactured by PerkinElmer). The GF/C filter plate was immersed in 0.3% polyethylene imine for one day before use.
Specific binding is a value obtained by subtracting nonspecific binding from total binding. The binding inhibitory activity of a test compound is shown by a ratio of a value obtained by subtracting a measurement value with addition of a test compound from the total binding, relative to specific binding.
The antagonistic activity of the compounds obtained in the Examples was determined as a concentration necessary for causing 50% inhibition (IC50 value) under the above-described conditions, and the results shown in Table 34 were obtained.
The radio ligand means substance P labeled with [^125I].

T1 sequence (P25103 whole entry): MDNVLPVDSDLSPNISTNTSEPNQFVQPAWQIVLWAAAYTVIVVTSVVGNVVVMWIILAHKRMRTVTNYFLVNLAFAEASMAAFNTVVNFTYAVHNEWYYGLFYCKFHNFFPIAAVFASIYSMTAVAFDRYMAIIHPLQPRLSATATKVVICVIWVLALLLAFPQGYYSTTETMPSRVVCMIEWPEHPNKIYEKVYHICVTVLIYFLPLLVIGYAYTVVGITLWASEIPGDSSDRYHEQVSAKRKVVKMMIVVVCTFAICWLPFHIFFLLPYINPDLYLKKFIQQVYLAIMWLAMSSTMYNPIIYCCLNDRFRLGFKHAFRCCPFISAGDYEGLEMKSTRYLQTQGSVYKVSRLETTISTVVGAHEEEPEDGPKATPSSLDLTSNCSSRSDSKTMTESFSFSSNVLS

IC50 [nM]	Structure (SMILES)
0.015	Cc1cc(F)ccc1[C@H]1CN(C(=O)C2CCN(C(=O)CO)CC2)CC[C@@H]1C(=O)N(C)Cc1cc(C(F)(F)F)cc(C(F)(F)F)c1 [Example 149, (3S,4S)—N-[3,5-bis(trifluoromethyl)benzyl]-3-(4-fluoro-2-methylphenyl)-1-[(1-glycoloylpiperidin-4-yl)carbonyl]-N-methylpiperidine-4-carboxamide]
0.033	Cc1cc(F)ccc1[C@H]1CN(C(=O)C2CCN(C(=O)[C@H](C)O)CC2)CC[C@@H]1C(=O)N(C)Cc1cc(C(F)(F)F)cc(C(F)(F)F)c1 [Example 150, (3S,4S)—N-[3,5-bis(trifluoromethyl)benzyl]-3-(4-fluoro-2-methylphenyl)-1-({1-[(2S)-2-hydroxypropanoyl]piperidin-4-yl}carbonyl)-N-methylpiperidine-4-carboxamide]
0.022	Cc1ccccc1[C@H]1CN(C(=O)C2CCN(C(=O)[C@H](C)O)CC2)CC[C@@H]1C(=O)N(C)Cc1cc(C(F)(F)F)cc(C(F)(F)F)c1 [Example 28, (3S,4S)—N-(3,5-bis(trifluoromethyl)benzyl]-1-({1-[(2S)-2-hydroxypropanoyl]piperidin-4-yl}carbonyl)-N-methyl-3-(2-methylphenyl)piperidine-4-carboxamide]
0.02	Cc1cc(F)ccc1[C@H]1CN(C(=O)C2CCN(C(=O)[C@@H](C)O)CC2)CC[C@@H]1C(=O)N(C)Cc1cc(C(F)(F)F)cc(C(F)(F)F)c1 [Example 151, (3S,4S)—N-[3,5-bis(trifluoromethyl)benzyl]-3-(4-fluoro-2-methylphenyl)-1-({1-[(2R)-2-hydroxypropanoyl]piperidin-4-yl}carbonyl)-N-methylpiperidine-4-carboxamide]
0.032	Cc1cc(F)ccc1[C@H]1CN(C(=O)CCS(C)(=O)=O)CC[C@@H]1C(=O)N(C)[C@@H](C)c1cc(C(F)(F)F)cc(C(F)(F)F)c1 [Example 160, (3S,4S)—N-{(1S)-1-[3,5-bis(trifluoromethyl)phenyl]ethyl}-3-(4-fluoro-2-methylphenyl)-N-methyl-1-[3-(methylsulfonyl)propanoyl]piperidine-4-carboxamide]
0.051	Cc1ccsc1C1CN(C(=O)C2CCN(C(=O)CO)CC2)CCC1C(=O)N(C)[C@@H](C)c1cc(C(F)(F)F)cc(C(F)(F)F)c1 (single isomer, unassigned; more polar) [Example 176, (3R*,4S*)—N-{(1S)-1-[3,5-bis(trifluoromethyl)phenyl]ethyl}-1-[(1-glycoloylpiperidin-4-yl)carbonyl]-N-methyl-3-(3-methyl-2-thienyl)piperidine-4-carboxamide (more polar)]
0.015	Cc1cc(F)ccc1[C@H]1CN(C(=O)C2CCN(C(=O)CO)CC2)CC[C@@H]1C(=O)N(C)[C@@H](C)c1cc(C(F)(F)F)cc(C(F)(F)F)c1 [Example 152, (3S,4S)—N-{(1S)-1-[3,5-bis(trifluoromethyl)phenyl]ethyl}-3-(4-fluoro-2-methylphenyl)-1-[(1-glycoloylpiperidin-4-yl)carbonyl]-N-methylpiperidine-4-carboxamide]
0.025	Cc1cc(F)ccc1[C@@H]1CN(CCC(C)(C)O)CC[C@H]1C(=O)N(C)Cc1cc(C(F)(F)F)cc(C(F)(F)F)c1 (relative stereo) [Example 123, (3R*,4R*)—N-[3,5-bis(trifluoromethyl)benzyl]-3-(4-fluoro-2-methylphenyl)-1-(3-hydroxy-3-methylbutyl)-N-methylpiperidine-4-carboxamide monohydrochloride]

System: not given
Assay: not given
Conditions: not given

melting point [°C]	Structure (SMILES)
234 to 236	Cc1cc(F)ccc1[C@@H]1CN(C(C)CO)CC[C@H]1C(=O)N(C)Cc1cc(C(F)(F)F)cc(C(F)(F)F)c1 (relative stereo) (as salt: hydrochloride) [Example 120, (3R*,4R*)—N-[3,5-bis(trifluoromethyl)benzyl]-3-(4-fluoro-2-methylphenyl)-1-(2-hydroxy-1-methylethyl)-N-methylpiperidine-4-carboxamide monohydrochloride]
210 to 214	Cc1cc(F)ccc1[C@@H]1CN(CC(=O)NC2CC2)CC[C@H]1C(=O)N(C)Cc1cc(C(F)(F)F)cc(C(F)(F)F)c1 (relative stereo) (as salt: hydrochloride) [Example 103, (3R*,4R*)—N-[3,5-bis(trifluoromethyl)benzyl]-1-[2-(cyclopropylamino)-2-oxoethyl]-3-(4-fluoro-2-methylphenyl)-N-methylpiperidine-4-carboxamide monohydrochloride]
175 to 178	Cc1cc(F)ccc1[C@@H]1CN(C2CCN(C(N)=O)CC2)CC[C@H]1C(=O)N(C)Cc1cc(C(F)(F)F)cc(C(F)(F)F)c1 (relative stereo) (as salt: hydrochloride) (hydrate or solvate) [Example 109, (3R*,4R*)—N^4-[3,5-bis(trifluoromethyl)benzyl]-3-(4-fluoro-2-methylphenyl)-N^4-methyl-1,4′-bipiperidine-1′,4-dicarboxamide monohydrochloride]
175 to 176	Cc1cc(F)ccc1[C@@H]1CN(C2CCN(C(=O)C(N)=O)CC2)CC[C@H]1C(=O)N(C)Cc1cc(C(F)(F)F)cc(C(F)(F)F)c1 (relative stereo) (as salt: hydrochloride) (hydrate or solvate) [Example 108, (3R*,4R*)-1′-[amino(oxo)acetyl]-N-[3,5-bis(trifluoromethyl)benzyl]-3-(4-fluoro-2-methylphenyl)-N-methyl-1,4′-bipiperidine-4-carboxamide monohydrochloride]
213 to 215	CC(=O)Nc1ccc(N2CC[C@@H](C(=O)N(C)Cc3cc(C(F)(F)F)cc(C(F)(F)F)c3)[C@H](c3ccc(F)cc3C)C2)nc1 (relative stereo) (as salt: hydrochloride) (hydrate or solvate) [Example 129, (3R*,4R*)-1-[5-(acetylamino)pyridin-2-yl]-N-[3,5-bis(trifluoromethyl)benzyl]-3-(4-fluoro-2-methylphenyl)-N-methylpiperidine-4-carboxamide monohydrochloride]
220 to 224	Cc1cc(F)ccc1[C@@H]1CN(CC(=O)N2CCC(O)CC2)CC[C@H]1C(=O)N(C)Cc1cc(C(F)(F)F)cc(C(F)(F)F)c1 (relative stereo) (as salt: hydrochloride) [Example 104, (3R*,4R*)—N-[3,5-bis(trifluoromethyl)benzyl]-3-(4-fluoro-2-methylphenyl)-1-[2-(4-hydroxypiperidin-1-yl)-2-oxoethyl]-N-methylpiperidine-4-carboxamide monohydrochloride]
209 to 211	Cc1cc(F)ccc1[C@@H]1CN(C(C)(C)C(N)=O)CC[C@H]1C(=O)N(C)Cc1cc(C(F)(F)F)cc(C(F)(F)F)c1 (relative stereo) (as salt: hydrochloride) [Example 113, (3R*,4R*)-1-(2-amino-1,1-dimethyl-2-oxoethyl)-N-[3,5-bis(trifluoromethyl)benzyl]-3-(4-fluoro-2-methylphenyl)-N-methylpiperidine-4-carboxamide monohydrochloride]
108 to 116	Cc1cc(F)ccc1[C@H]1CN(C(=O)C2CCN(C(=O)CO)CC2)CC[C@@H]1C(=O)N(C)[C@@H](C)c1cc(C(F)(F)F)cc(C(F)(F)F)c1 (hydrate or solvate) [Example 152, (3S,4S)—N-{(1S)-1-[3,5-bis(trifluoromethyl)phenyl]ethyl}-3-(4-fluoro-2-methylphenyl)-1-[(1-glycoloylpiperidin-4-yl)carbonyl]-N-methylpiperidine-4-carboxamide]
173 to 174	Cc1ccccc1[C@@H]1CN(C(=O)C2CCN(C(=O)CO)CC2)CC[C@H]1C(=O)N(C)Cc1cc(C(F)(F)F)cc(C(F)(F)F)c1 (relative stereo) [Example 16, (3R*,4R*)—N-[3,5-bis(trifluoromethyl)benzyl]-1-[(1-glycoloylpiperidin-4-yl)carbonyl]-N-methyl-3-(2-methylphenyl)piperidine-4-carboxamide]
